For test [1], the target named is human opioid receptor-like (ORL-1) (Homo sapiens, UniProt P41146). Briefly: In vitro ORL-1 receptor [35S]GTPγS functional assay. It counts as biochemical.
The next test addresses human CYP2D6 (Homo sapiens, UniProt P10635). In words: Cytochrome P450 2D6 inhibition (dextromethorphan O-demethylation, pooled human hepatic microsome).

Structures are written as SMILES.

human opioid receptor-like (ORL-1), sequence (P41146 whole entry): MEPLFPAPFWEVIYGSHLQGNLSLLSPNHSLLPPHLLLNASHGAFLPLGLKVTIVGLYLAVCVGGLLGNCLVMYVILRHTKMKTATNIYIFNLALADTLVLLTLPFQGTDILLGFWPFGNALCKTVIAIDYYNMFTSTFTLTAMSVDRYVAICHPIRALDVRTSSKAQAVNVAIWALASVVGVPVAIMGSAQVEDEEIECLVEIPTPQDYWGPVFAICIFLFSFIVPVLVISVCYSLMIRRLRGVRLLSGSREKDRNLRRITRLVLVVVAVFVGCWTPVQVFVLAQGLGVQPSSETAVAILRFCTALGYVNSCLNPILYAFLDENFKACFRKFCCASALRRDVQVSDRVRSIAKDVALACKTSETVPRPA
human CYP2D6, sequence (P10635 whole entry): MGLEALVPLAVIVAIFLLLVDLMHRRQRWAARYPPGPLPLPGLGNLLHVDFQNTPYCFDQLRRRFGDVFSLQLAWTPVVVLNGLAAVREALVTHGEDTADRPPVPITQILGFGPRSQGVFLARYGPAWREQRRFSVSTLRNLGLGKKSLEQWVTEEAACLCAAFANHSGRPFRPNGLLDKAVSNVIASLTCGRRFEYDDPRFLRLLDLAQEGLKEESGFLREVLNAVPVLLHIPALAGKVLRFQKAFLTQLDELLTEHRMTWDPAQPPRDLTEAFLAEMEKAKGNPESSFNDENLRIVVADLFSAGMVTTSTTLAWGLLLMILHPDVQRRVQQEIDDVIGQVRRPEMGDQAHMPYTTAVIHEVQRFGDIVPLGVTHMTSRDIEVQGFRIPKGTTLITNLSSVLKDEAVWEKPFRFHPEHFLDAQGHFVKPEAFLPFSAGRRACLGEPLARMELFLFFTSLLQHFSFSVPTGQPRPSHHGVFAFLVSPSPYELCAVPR

For `O=c1[nH]cnn1-c1nc2ccccc2n([C@H]2C[C@H]3CCC[C@@H](C2)N3[C@H]2C[C@@H]3CCC[C@@H](C3)C2)c1=O` [Compound B23a, 1-((1R,3r,3′R,5S,5′S)-[3,9′-bi(9′-azabicyclo[3.3.1]nonan)]-3′-yl)-3-(5-oxo-4,5-dihydro-1H-1,2,4-triazol-1-yl)quinoxalin-2(1H)-one], the EC50 in test [1] is > 20 µM. The IC50 against human CYP2D6 is 17.8 µM.
On to `O=C(O)Cn1cccc(-c2nc3ccccc3n([C@H]3C[C@H]4CC[C@@H](C3)N4[C@H]3C[C@@H]4CCC[C@@H](C4)C3)c2=O)c1=O` [Q13a(iii), 2-(3-(4-((1R,3R,5S)-8-((1R,3r,5S)-bicyclo[3.3.1]nonan-3-yl)-8-azabicyclo[3.2.1]octan-3-yl)-3-oxo-3,4-dihydroquinoxalin-2-yl)-2-oxopyridin-1(2H)-yl)acetic acid], for which a half-maximal response in test [1] (EC50) required 0.255 ± 0.042 µM. Besides, the IC50 against human CYP2D6 is > 20 µM.
For `O=C(O)CCn1cccc(-c2nc3ccccc3n([C@H]3C[C@H]4CCC[C@@H](C3)N4[C@H]3C[C@@H]4CCC[C@@H](C4)C3)c2=O)c1=O` [Compound U057, 3-(3-(4-((1R,1′R,3r,3′R,5S,5′S)-[3,9′-bi(9′-azabicyclo[3.3.1]nonan)]-3′-yl)-3-oxo-3,4-dihydroquinoxalin-2-yl)-2-oxopyridin-1(2H)-yl)propanoic acid], in that order: > 20 µM and > 20 µM.
For `Nc1ccn(-c2nc3ccccc3n([C@H]3C[C@H]4CCC[C@@H](C3)N4[C@@H]3C[C@@H]4CCCC[C@@H](C4)C3)c2=O)c(=O)n1` [Compound U068, 3-(4-amino-2-oxopyrimidin-1(2H)-yl)-1-((1R,3R,5S)-9-((1R,6S,8s)-bicyclo[4.3.1]decan-8-yl)-9-azabicyclo[3.3.1]nonan-3-yl)quinoxalin-2(1H)-one], in that order: > 20 µM and > 20 µM.
For `Cc1nn(-c2nc3ccccc3n([C@H]3C[C@H]4CCC[C@@H](C3)N4[C@H]3C[C@@H]4CCC[C@@H](C4)C3)c2=O)c(=S)[nH]c1=O` [Compound U001, 1-((1R,1′R,3r,3′R,5S,5′S)-[3,9′-bi(9′-azabicyclo[3.3.1]nonan)]-3′-yl)-3-(6-methyl-5-oxo-3-thioxo-4,5-dihydro-1,2,4-triazin-2(3H)-yl)quinoxalin-2(1H)-one], in that order: > 20 µM and > 20 µM.
As to `CC1(C)C(=O)NC(=O)N1c1nc2ccccc2n([C@H]2C[C@H]3CCC[C@@H](C2)N3[C@@H]2C[C@@H]3CCCC[C@@H](C3)C2)c1=O` [Compound O19a, 1-(4-((1R,3R,5S)-9-((1R,6S,8s)-bicyclo[4.3.1]decan-8-yl)-9-azabicyclo[3.3.1]nonan-3-yl)-3-oxo-3,4-dihydroquinoxalin-2-yl)-5,5-dimethylimidazolidine-2,4-dione], the EC50 in test [1] is > 20 µM. For the same molecule, the IC50 against human CYP2D6 is > 20 µM.
Molecule `O=c1[nH]cc(F)cc1-c1nc2ccccc2n([C@H]2C[C@H]3CCC[C@@H](C2)N3[C@H]2C[C@@H]3CCC[C@@H](C3)C2)c1=O` [R16a(i), 1-((1R,1′R,3r,3′R,5S,5′S)-[3,9′-bi(9′-azabicyclo[3.3.1]nonan)]-3′-yl)-3-(5-fluoro-2-oxo-1,2-dihydropyridin-3-yl)quinoxalin-2(1H)-one] displayed a concentration for a half-maximal effect (EC50) in test [1] of 1.61 ± 0.441 µM. The IC50 against human CYP2D6 is > 20 µM.
For `O=C1CN(c2nc3ccccc3n([C@H]3C[C@H]4CCC[C@@H](C3)N4[C@H]3C[C@@H]4CCC[C@@H](C4)C3)c2=O)C(=O)N1` [Compound B17a, 1-(4-((1R,1′R,3r,3′R,5S,5′S)-[3,9′-bi(9′-azabicyclo[3.3.1]nonan)]-3′-yl)-3-oxo-3,4-dihydroquinoxalin-2-yl)imidazolidine-2,4-dione], in that order: > 20 µM and > 20 µM.
For `Cc1nn(-c2nc3ccccc3n([C@H]3C[C@H]4CCC[C@@H](C3)N4[C@H]3C[C@@H]4CCC[C@@H](C4)C3)c2=O)c(=O)[nH]c1=O` [Compound B10a, 2-(4-((1R,1′R,3r,3′R,5S,5′S)-[3,9′-bi(9′-azabicyclo[3.3.1]nonan)]-3′-yl)-3-oxo-3,4-dihydroquinoxalin-2-yl)-6-methyl-1,2,4-triazine-3,5(2H,4H)-dione], in that order: > 20 µM and > 20 µM.
For `O=c1ccn(-c2nc3ccccc3n([C@H]3C[C@H]4CCC[C@@H](C3)N4[C@@H]3C[C@@H]4CCCC[C@@H](C4)C3)c2=O)c(=O)[nH]1` [Compound O13b, 1-(4-((1R,3R,5S)-9-((1R,6S,8s)-bicyclo[4.3.1]decan-8-yl)-9-azabicyclo[3.3.1]nonan-3-yl)-3-oxo-3,4-dihydroquinoxalin-2-yl)pyrimidine-2,4(1H,3H)-dione] the same measures were > 20 µM and > 20 µM.
In the case of `O=c1ncc(-c2nc3ccccc3n([C@H]3C[C@H]4CCC[C@@H](C3)N4[C@H]3C[C@@H]4CCC[C@@H](C4)C3)c2=O)c[nH]1` [Compound U048, 1-((1R,1′R,3r,3′R,5S,5′S)-[3,9′-bi(9′-azabicyclo[3.3.1]nonan)]-3′-yl)-3-(2-oxo-1,2-dihydropyrimidin-5-yl)quinoxalin-2(1H)-one], the 50% effective concentration (EC50) in test [1] is > 20 µM. Also, the IC50 at human CYP2D6 was > 20 µM.
In the case of `O=c1ccn(-c2nc3ccccc3n([C@H]3C[C@H]4CCC[C@@H](C3)N4[C@H]3C[C@@H]4CCC[C@@H](C4)C3)c2=O)c(=O)[nH]1` [Compound B13a, 1-(4-((1R,1′R,3r,3′R,5S,5′S)-[3,9′-bi(9′-azabicyclo[3.3.1]nonan)]-3′-yl)-3-oxo-3,4-dihydroquinoxalin-2-yl)pyrimidine-2,4(1H,3H)-dione], in test [1], the EC50 was > 20 µM. For the same molecule, on human CYP2D6, the IC50 is > 20 µM.
`O=c1cnn(-c2nc3ccccc3n([C@H]3C[C@H]4CCC[C@@H](C3)N4[C@@H]3C[C@@H]4CCCC[C@@H](C4)C3)c2=O)c(=O)[nH]1` [Compound O9b, 2-(4-((1R,3R,5S)-9-((1R,6S,8s)-bicyclo[4.3.1]decan-8-yl)-9-azabicyclo[3.3.1]nonan-3-yl)-3-oxo-3,4-dihydroquinoxalin-2-yl)-1,2,4-triazine-3,5(2H,4H)-dione]: the EC50 in test [1] is > 20 µM. Further, the IC50 on human CYP2D6 is > 20 µM.
In test [1], `O=c1cnn(-c2nc3ccccc3n([C@H]3C[C@H]4CC[C@@H](C3)N4[C@H]3C[C@@H]4CCC[C@@H](C4)C3)c2=O)c(=O)[nH]1` [Compound A9a, 2-(4-((1R,3R,5S)-8-((1R,3r,5S)-bicyclo[3.3.1]nonan-3-yl)-8-azabicyclo[3.2.1]octan-3-yl)-3-oxo-3,4-dihydroquinoxalin-2-yl)-1,2,4-triazine-3,5(2H,4H)-dione] returned an EC50 of 0.378 ± 0.055 µM. For the same molecule, the IC50 against human CYP2D6 is > 20 µM.
In test [1], `O=c1cnn(-c2nc3ccccc3n([C@H]3C[C@H]4CCC[C@@H](C3)N4C3CCCCCCC3)c2=O)c(=O)[nH]1` [Compound H9c, 2-(4-((1R,3r,5S)-9-cyclooctyl-9-azabicyclo[3.3.1]nonan-3-yl)-3-oxo-3,4-dihydroquinoxalin-2-yl)-1,2,4-triazine-3,5(2H,4H)-dione] registered an EC50 of 0.376 ± 0.016 µM. Also, the IC50 against human CYP2D6 was > 20 µM.
For `Nc1ccn(-c2nc3ccccc3n([C@H]3C[C@H]4CCC[C@@H](C3)N4[C@H]3C[C@@H]4CCC[C@@H](C4)C3)c2=O)c(=O)n1` [B5a(i), 1-((1R,1′R,3r,3′R,5S,5′S)-[3,9′-bi(9′-azabicyclo[3.3.1]nonan)]-3′-yl)-3-(4-amino-2-oxopyrimidin-1(2H)-yl)quinoxalin-2(1H)-one] the same measures were > 20 µM and > 20 µM.
